The source of these data is ChEMBL document CHEMBL5241112, “Insights into the recent progress in the medicinal chemistry of pyranopyrimidine analogs” (RSC Med Chem, 2022).

Values after ≈ are worked out from the molar mass of the structure shown.

The test system of data set [1] is Bacillus subtilis. Briefly: Antibacterial activity against Bacillus subtilis MTCC 121 assessed as minimum bactericidal concentration incubated for 24 hrs by broth microdilution method. The format is functional.
The test system of data set [2] is Candida albicans. Description: Antifungal activity against Candida albicans MTCC 1637 assessed as inhibition of fungal growth incubated for 24 hrs by agar well diffusion method. The data set is classed as functional. (Agar diffusion results depend on both activity and mobility in agar.)
The test system of data set [3] is Staphylococcus aureus. Description: Antibacterial activity against Staphylococcus aureus MLS-16 MTCC 2940 assessed as bacterial growth inhibition incubated for 24 hrs by broth microdilution method. The format is functional. On the technique in general: In broth dilution the organism is exposed to a series of concentrations in liquid medium.
Data set [4] concerns Micrococcus luteus. Description: Antibiofilm activity against Micrococcus luteus MTCC 2470 assessed as inhibition of biofilm incubated for 24 hrs by crystal violet staining based spectrophotometry. The data set is classed as functional, organism-based. As to conditions: MTCC 2470, 24 h.
Data set [5] deals with Micrococcus luteus. Description: Antibacterial activity against Micrococcus luteus MTCC 2470 assessed as bacterial growth inhibition incubated for 24 hrs by broth microdilution method. The format is functional.
Data set [6] deals with Staphylococcus aureus. Briefly: Antibacterial activity against Staphylococcus aureus MLS-16 MTCC 2940 assessed as minimum bactericidal concentration incubated for 24 hrs by broth microdilution method. The format is functional.
Data set [7] has as its system Candida albicans. Description: Antifungal activity against Candida albicans MTCC 854 assessed as inhibition of fungal growth incubated for 24 hrs by agar well diffusion method. The data set is classed as functional.
For data set [8], the system named is Nakaseomyces glabratus. Description: Antifungal activity against Candida glabrata MTCC 3019 assessed as inhibition of fungal growth incubated for 24 hrs by agar well diffusion method. The data set is classed as functional.
For data set [9], the system named is Bacillus subtilis. Briefly: Antibacterial activity against Bacillus subtilis MTCC 121 assessed as bacterial growth inhibition incubated for 24 hrs by broth microdilution method. The format is functional.
For data set [10], the system named is Raoultella planticola. Briefly: Antibiofilm activity against Raoultella planticola MTCC 530 assessed as inhibition of biofilm incubated for 24 hrs by crystal violet staining based spectrophotometry. The format is functional, organism-based. The settings on record: Klebsiella planticola, MTCC 530, 24 h.
For data set [11], the system named is Micrococcus luteus. Description: Antibacterial activity against Micrococcus luteus MTCC 2470 assessed as minimum bactericidal concentration incubated for 24 hrs by broth microdilution method. The format is functional.
In data set [12] the test system is Staphylococcus aureus. Briefly: Antibacterial activity against Staphylococcus aureus MTCC 96 assessed as bacterial growth inhibition incubated for 24 hrs by broth microdilution method. The data set is classed as functional.
Data set [13] concerns Candida albicans. Briefly: Antifungal activity against Candida albicans MTCC 183 assessed as inhibition of fungal growth incubated for 24 hrs by agar well diffusion method. The data set is classed as functional.
Data set [14] concerns Escherichia coli. Briefly: Antibiofilm activity against Escherichia coli MTCC 739 assessed as inhibition of biofilm incubated for 24 hrs by crystal violet staining based spectrophotometry. The data set is classed as functional, organism-based. As to conditions: MTCC 739, 24 h.
Data set [15] has as its system Escherichia coli. Briefly: Antibacterial activity against Escherichia coli MTCC 739 assessed as bacterial growth inhibition incubated for 24 hrs by broth microdilution method. The data set is classed as functional.
The test system of data set [16] is Candida albicans. Description: Antifungal activity against Candida albicans MTCC 227 assessed as inhibition of fungal growth incubated for 24 hrs by agar well diffusion method. The format is functional.
The test system of data set [17] is Staphylococcus aureus. Description: Antibacterial activity against Staphylococcus aureus MTCC 96 assessed as minimum bactericidal concentration incubated for 24 hrs by broth microdilution method. The format is functional.
Data set [18] has as its system Raoultella planticola. Description: Antibacterial activity against Raoultella planticola MTCC 530 assessed as minimum bactericidal concentration incubated for 24 hrs by broth microdilution method. The data set is classed as functional. The settings on record: Klebsiella planticola.
The subject of data set [19] is Bacillus subtilis. Description: Antibiofilm activity against Bacillus subtilis MTCC 121 assessed as inhibition of biofilm incubated for 24 hrs by crystal violet staining based spectrophotometry. The data set is classed as functional, organism-based. As to conditions: MTCC 121, 24 h.
The subject of data set [20] is Pichia kudriavzevii. Description: Antifungal activity against Candida krusei MTCC 3020 assessed as inhibition of fungal growth incubated for 24 hrs by agar well diffusion method. The format is functional.
Data set [21] concerns Staphylococcus aureus. Description: Antibiofilm activity against Staphylococcus aureus MLS-16 MTCC 2940 assessed as inhibition of biofilm incubated for 24 hrs by crystal violet staining based spectrophotometry. The format is functional, organism-based. As to conditions: MLS-16 MTCC 2940, 24 h.
For data set [22], the system named is Pichia sporocuriosa. Description: Antifungal activity against Pichia sporocuriosa MTCC 4755 assessed as inhibition of fungal growth incubated for 24 hrs by agar well diffusion method. The data set is classed as functional.
For data set [23], the system named is Raoultella planticola. Description: Antibacterial activity against Raoultella planticola MTCC 530 assessed as bacterial growth inhibition incubated for 24 hrs by broth microdilution method. The format is functional. The settings on record: Klebsiella planticola.
Data set [24] has as its system Escherichia coli. Description: Antibacterial activity against Escherichia coli MTCC 739 assessed as minimum bactericidal concentration incubated for 24 hrs by broth microdilution method. The format is functional.
The subject of data set [25] is Candida parapsilosis. Description: Antifungal activity against Candida parapsilosis MTCC 1744 assessed as inhibition of fungal growth incubated for 24 hrs by agar well diffusion method. As to conditions: Lodderomyces parapsilosis. The data set is classed as functional.
Data set [26] has as its system Staphylococcus aureus. Description: Antibiofilm activity against Staphylococcus aureus MTCC 96 assessed as inhibition of biofilm incubated for 24 hrs by crystal violet staining based spectrophotometry. The format is functional, organism-based. As to conditions: MTCC 96, 24 h.
Data set [27] deals with NUGC. Briefly: Anticancer activity against human NUGC cells assessed as cell growth inhibition incubated for 24 hrs. The data set is classed as functional, cell-based.
The test system of data set [28] is HepG2. Description: Anticancer activity against human HepG2 cells assessed as cell growth inhibition incubated for 24 hrs. As to conditions: HepG2, 24 h. The format is functional, cell-based.
The test system of data set [29] is HONE1 cell line. Briefly: Anticancer activity against human HONE1 cell line assessed as cell growth inhibition incubated for 24 hrs. The data set is classed as functional, cell-based. The settings on record: HONE1, 24 h.
Data set [30] can be described thus: Cytotoxicity against human WI-38 cells assessed as cell growth inhibition incubated for 24 hrs. The format is toxicity, cell-based.
The test system of data set [31] is WI-38. Description: Cytotoxicity against human WI-38 cells assessed as lethality incubated for 24 hrs. As to conditions: wi-38, 24 h. The data set is classed as toxicity, cell-based.
For data set [32], the system named is MCF7. Description: Anticancer activity against human MCF7 cells assessed as cell growth inhibition incubated for 24 hrs. The format is functional, cell-based. As to conditions: MCF7, 24 h.
In data set [33] the test system is DLD-1. Description: Anticancer activity against human DLD-1 cells assessed as cell growth inhibition incubated for 24 hrs. The data set is classed as functional, cell-based. As to conditions: DLD-1, 24 h.
The test system of data set [34] is Human alphaherpesvirus 1. Description: Antiviral activity against HSV-1 assessed as inhibition of viral replication at 40 ug. The arrangement: scale not given: the % may be the effect or the level left. The data set is classed as functional. As to conditions: dose 40 µg.
Data set [35] relates to Human alphaherpesvirus 1. Briefly: Antiviral activity against HSV-1 assessed as inhibition of viral replication at 20 ug. The format is functional. As to conditions: dose 20 µg. On the set-up: scale not given: the % may be the effect or the level left.
For data set [36], the system named is Serratia marcescens. Description: Antibacterial activity against Serratia marcescens assessed as diameter of inhibition zone by disc diffusion method. The data set is classed as functional.
For data set [37], the system named is Aspergillus ochraceus. Description: Antifungal activity against Aspergillus ochraceus assessed as diameter of inhibition zone by disc diffusion method. The format is functional.
Data set [38] concerns Penicillium chrysogenum. Description: Antifungal activity against Penicillium chrysogenum assessed as diameter of inhibition zone by disc diffusion method. The format is functional.
Data set [39] relates to Bacillus cereus. Briefly: Antibacterial activity against Bacillus cereus assessed as diameter of inhibition zone by disc diffusion method. The format is functional.
For data set [40], the system named is Staphylococcus aureus. Briefly: Antibacterial activity against Staphylococcus aureus assessed as diameter of inhibition zone by disc diffusion method. The format is functional.

A word on the MBC: it is the lowest tested concentration that kills the bacteria rather than only halting them. In general, MIC refers to the smallest concentration in the dilution series that meets the test's criterion for growth inhibition. For orientation: IC50 means the concentration that inhibits the measured activity by half. A word on the LC50: it is the concentration that kills 50% of the test population.

As to `COc1ccc(Nc2ncnc3c2C(c2ccc(OC)cc2)c2c(cc(C)oc2=O)O3)cc1` (stereo not drawn), the minimal bactericidal concentration (MBC) in data set [1], in data set [6], in data set [11], in data set [17], in [18] and in [24] was 7.8 µg/mL (≈ 17.6 µM) in each case. Moreover, the MIC is 7.8 µg/mL (≈ 17.6 µM) in data set [2]; 15.6 µg/mL (≈ 35.2 µM) in [3]; 15.6 µg/mL (≈ 35.2 µM) in [5]; 7.8 µg/mL (≈ 17.6 µM) in data set [7]; 7.8 µg/mL (≈ 17.6 µM) in data set [8]; 7.8 µg/mL (≈ 17.6 µM) in data set [9]. Moreover, the MIC in data set [12] is 15.6 µg/mL (≈ 35.2 µM); in [13], 7.8 µg/mL (≈ 17.6 µM); in data set [15] it was 7.8 µg/mL (≈ 17.6 µM); in data set [16], 7.8 µg/mL (≈ 17.6 µM); in data set [20], 7.8 µg/mL (≈ 17.6 µM); in data set [22] it was 7.8 µg/mL (≈ 17.6 µM). Further, the MIC in data set [23] and in [25] was 7.8 µg/mL (≈ 17.6 µM) in each case. Further, the IC50 in data set [4], in data set [10], in [14], in data set [19], in [21] and in data set [26] was 2.5 µM each time.
Turning to `N#CC1=C(N)C2C(=NC(NNc3ccccc3)=NC2c2ccc(Cl)cc2)OC1=O` (stereo not drawn), the IC50 in data set [27] turned out to be 0.055 µM; in data set [28], 0.523 µM; in data set [29] it was 0.536 µM; in data set [32] it was 0.285 µM; in [33], 0.146 µM. Besides, the IC50 at 24 h in data set [30] turned out to be 0.222 µM. In data set [31], the LC50 amounted to 18.38 µg/mL (≈ 45.2 µM).
As for `Cc1nc2c(c(=O)[nH]1)C(c1ccc([N+](=O)[O-])cc1)c1c(n[nH]c1C)O2` (stereo not drawn), the figures for the Activity in [34] and in [35] were 95% and 63%, respectively.
Take `CCOC(=O)c1nc2c3c(ncn2n1)Oc1ccc2cc(Br)ccc2c1C3`: the “diameter of the inhibition zone (DIZ)” value in data set [36] is reported as 24 mm; in [37], 17 mm; in data set [38] it was 22 mm; in [39], 23 mm.
For `N#CCc1nc2c3c(ncn2n1)Oc1ccc2cc(Br)ccc2c1C3`, the “diameter of the inhibition zone (DIZ)” value in data set [36] came out at 23 mm; in data set [40], 25 mm; in [37], 17 mm; in data set [38], 13 mm.
